Here are results for 16 compounds from ChEMBL document CHEMBL3045002, “3,4-Dihydropyrimidin-2(1H)-one derivatives: Organocatalysed microwave assisted synthesis and evaluation of their antioxidant activity” (Med Chem Res, 2012).

Type in all cases: functional
A short description of assay [1]: Antioxidant activity assessed as Fe2+ chelating activity after 10 min by spectrophotometry.
Assay [2] is described as follows: Antioxidant activity in phosphate buffer at pH 6.6 assessed as reducing power measuring conversion of potassium ferricyanide to ferrous form after 10 min by spectrophotometry.
Assay [3] can be described thus: Antioxidant activity assessed as DPPH scavenging activity after 2 hr by spectrophotometry.

≈ marks a conversion by molar mass, not a printed value.

The term EC50 denotes the concentration giving half of the maximal effect. For orientation: IC50 means the concentration at which inhibition is half-maximal. Regarding `CCOC(=O)C1=C(C)NC(=O)NC1c1ccc(O)cc1` (stereo not drawn), the EC50 in assay [1] came to 0.89 µg/mL (≈ 3.22 µM); in assay [2] it was 61.4 µg/mL (≈ 222 µM). Also, the IC50 in assay [3] was 2.71 µg/mL (≈ 9.81 µM).
In the same order, the values of `CCOC(=O)C1=C(C)NC(=O)NC1c1ccc(O)c(OC)c1` (stereo not drawn) are 0.88 µg/mL (≈ 2.87 µM), 49.38 µg/mL (≈ 161 µM) and 3.65 µg/mL (≈ 11.9 µM).
In the same order, the values of `CCOC(=O)C1=C(C)NC(=O)NC1c1ccc(OC)cc1` (stereo not drawn) are 1.55 µg/mL (≈ 5.34 µM), 171.12 µg/mL (≈ 589 µM) and 48.45 µg/mL (≈ 167 µM).
On to `Cc1cc(C(C)(C)C)c(O)c(C(C)(C)C)c1` [BUTYLATED HYDROXYTOLUENE], for which, in assay [2], the EC50 is 20 µg/mL (≈ 90.8 µM). Moreover, the IC50 in assay [3] was determined as 2.18 µg/mL (≈ 9.89 µM).
In the case of `CCOC(=O)C1=C(C)NC(=O)NC1c1ccccc1` (stereo not drawn), the EC50 in assay [1] worked out at 1.04 µg/mL (≈ 4 µM); in assay [2], 158.9 µg/mL (≈ 610 µM). Besides, the IC50 in assay [3] amounted to 25.04 µg/mL (≈ 96.2 µM).
Regarding `COC(=O)C1=C(C)NC(=O)NC1c1ccc(O)c(OC)c1` (stereo not drawn), the results for the EC50 in assay [1] and in assay [2] were 0.9 µg/mL (≈ 3.08 µM) and 57.14 µg/mL (≈ 195 µM), respectively. The IC50 in assay [3] was determined as 5.02 µg/mL (≈ 17.2 µM).
Regarding `COC(=O)C1=C(C)NC(=O)NC1c1cccc([N+](=O)[O-])c1` (stereo not drawn), the EC50 in assay [1] was 1.6 µg/mL (≈ 5.49 µM); in assay [2] it was 126.35 µg/mL (≈ 434 µM). Further, the IC50 in assay [3] turned out to be 27.08 µg/mL (≈ 93 µM).
Take `Oc1cc(O)c2c(c1)OC(c1ccc(O)c(O)c1)C(O)C2` (stereo not drawn) [CATECHIN]: in assay [2], the EC50 came to 10 µg/mL (≈ 34.5 µM). Moreover, the IC50 in assay [3] came out at 2.12 µg/mL (≈ 7.3 µM).
In the same order, the values of `O=C(O)c1cc(O)c(O)c(O)c1` [GALLIC ACID] are 5.25 µg/mL (≈ 30.9 µM) and 2.06 µg/mL (≈ 12.1 µM).
For the compound `O=C(O)CC(O)(CC(=O)O)C(=O)O` [CITRIC ACID], the EC50 in assay [1] was found to be 0.074 µg/mL (≈ 0.385 µM).
As to `COC(=O)C1=C(C)NC(=O)NC1c1ccc(O)cc1` (stereo not drawn), the EC50 in assay [1] stood at 0.79 µg/mL (≈ 3.01 µM); in assay [2], 67 µg/mL (≈ 255 µM). Moreover, the IC50 in assay [3] amounted to 3.14 µg/mL (≈ 12 µM).
With `COC(=O)C1=C(C)NC(=O)NC1c1ccc(OC)cc1` (stereo not drawn), the EC50 came to 1.92 µg/mL (≈ 6.95 µM) in assay [1] and 206 µg/mL (≈ 746 µM) in assay [2]. Moreover, the IC50 in assay [3] was determined as 31.69 µg/mL (≈ 115 µM).
Turning to `CCOC(=O)C1=C(C)NC(=O)NC1c1ccc([N+](=O)[O-])cc1` (stereo not drawn), the values for the EC50 in assay [1] and in assay [2] were 1.86 µg/mL (≈ 6.09 µM) and 238.09 µg/mL (≈ 780 µM), respectively. Also, the IC50 in assay [3] was 33.29 µg/mL (≈ 109 µM).
The matching figures for `CCOC(=O)C1=C(C)NC(=O)NC1c1cccc([N+](=O)[O-])c1` (stereo not drawn): 1.16 µg/mL (≈ 3.8 µM), 339.06 µg/mL (≈ 1110 µM) and 27.73 µg/mL (≈ 90.8 µM).
The matching figures for `COC(=O)C1=C(C)NC(=O)NC1c1ccccc1` (stereo not drawn): 2.23 µg/mL (≈ 9.06 µM), 97.56 µg/mL (≈ 396 µM) and 28.43 µg/mL (≈ 115 µM).
Regarding `COC(=O)C1=C(C)NC(=O)NC1c1ccc([N+](=O)[O-])cc1` (stereo not drawn), the EC50 in assay [1] came out at 1.71 µg/mL (≈ 5.87 µM); in assay [2] it was 170.02 µg/mL (≈ 584 µM). In assay [3], the IC50 came to 27.78 µg/mL (≈ 95.4 µM).
